These results are taken from patent publication US20120041019A1, “PROTEASE INHIBITORS” (priority 2008, published 2012).

Read-outs that look alike come from different tables or passages of the source.

In one assay the target is T1, HIV-1 Protease (Human immunodeficiency virus type 1 group M subtype B, UniProt P04585).
T1 construct: SensoLyte™ 490 HIV-1 Protease Assay Kit
Kind of assay: Cell free assay (SensoLyte 490 HIV-1 Protease Assay Kit). It counts as biochemical. The protocol: Procedure—cell free assay. The cell free assays were conducted according to the test kit protocol provided with the SensoLyte™ 490 HIV-1 Protease Assay Kit, available from AnaSpec (San Jose, Calif.).

The subject of another assay is HIV-1LAI. Kind of assay: Cell infectivity assay (HIV-1LAI infection of CEM-T4 cells, p24 readout). It counts as cell-based. The conditions noted are these: for IC50: Human immunodeficiency virus 1, CEM-T4 cells infected with HIV-1LAI, read-out: HIV PI IC50 (nM) (Cell Infectivity Assay); for loss in potency between cell free assay experiments and cell infectivity assay experiments: comparison of cell free and cell infectivity IC50. The protocol:
Procedure—cell infectivity assay. The T-cell-tropic strain HIV-1LAI was used to infect CEM-T4 cells over a dose range of the protease inhibitor compounds. CEM-T4 cells were grown in RPMI 1640 medium supplemented with 10% heat-inactivated fetal bovine serum, penicillin (100 units/mL), streptomycin (100 ug/mL), and polybrene (2 ug/mL) at 37° C. with 5% CO2. The PI dose range covered a total of nine 3:1 dilutions from 5000 nM to less than 1 nM. The tittered virus was added to wells of CEM cells (pre-treated with protease inhibitor [PI] dilution series for 1 h) at a low multiplicity of infection (MOI=0.01) and incubated for 4 h at 37° C. The cells then were washed three times with PBS (GIBCO/BRL), resuspended in triplicate wells each with 1 ml of culture medium containing the same concentration of PI as the initial pre-incubation and further incubated at 37° C. in 5% CO2. Each well of the 24-well plate contains 1×10̂5 cells upon incubation initiation. The cells were fed every two days with fresh PI at the appropriate concentration. Samples were scored for cytopathic effect on day 4, and if consistent CPE was seen throughout the various wells, the supernatants was collected for p24 assay. Otherwise, the cultures were maintained with feeding every other day until day 8, at which point the p24 were initiated.

Setting [1] is: Table 2 Activity Data, read-out: HIV PI IC50 (nM) (Cell-Free Assay).

Turning to `CCC(C)(C)C(=O)C(=O)N1CCCCC1C(=O)OC(CCc1ccc(OC)c(OC)c1)c1cccc(OCC(=O)NCCCOC(=O)NC(Cc2ccccc2)C(O)CN(CC(C)C)S(=O)(=O)c2ccc(N)cc2)c1` (stereo not drawn) [Compound A2], on HIV-1 Protease (setting [1]), the IC50 – broadly, the point on the concentration scale where inhibition reaches its midpoint – is 7.3 nM.
`CCC(C)(C)C(=O)C(=O)N1CCCCC1C(=O)OC(CCc1ccc(OC)c(OC)c1)c1cccc(OCCNC(=O)CCCOC(=O)NC(Cc2ccccc2)C(O)CN(CC(C)C)S(=O)(=O)c2ccc([N+](=O)[O-])cc2)c1` (stereo not drawn) [Compound A3]: at HIV-1 Protease (setting [1]), the IC50 turned out to be 11.5 nM.
As for `CCC(C)(C)C(=O)C(=O)N1CCCCC1C(=O)OC(CCc1ccc(OC)c(OC)c1)c1cccc(OCCNC(=O)NC(C(=O)NC(Cc2ccccc2)C(O)CN(CC(C)C)S(=O)(=O)c2ccc(N)cc2)C(C)C)c1` (stereo not drawn) [Compound A10], the IC50 on HIV-1 Protease stood at 3.9 nM; in the assay with HIV-1LAI, 48.1 nM.
`CCC(C)(C)C(=O)C(=O)N1CCCCC1C(=O)OC(CCc1ccc(OC)c(OC)c1)c1cccc(OCC(=O)NC(CC(N)=O)C(=O)NC(Cc2ccccc2)C(CN(CC(C)C)S(=O)(=O)c2ccc(N)cc2)OC)c1` (stereo not drawn) [Compound A7] displayed an IC50 against HIV-1 Protease of 6.6 nM. In addition, in the assay with HIV-1LAI, the IC50 came to 14 nM; the “loss in potency between cell free assay experiments and cell infectivity assay experiments” value was “little or no loss in potency”.
`CC(C)CN(C[C@@H](O)[C@H](Cc1ccccc1)NC(=O)O[C@H]1CCOC1)S(=O)(=O)c1ccc(N)cc1` [Amprenavir, amprenavir, reference compound]: in the assay on HIV-1LAI, the concentration for half-maximal inhibition (IC50) was determined as 171 nM; the “loss in potency between cell free assay experiments and cell infectivity assay experiments” value was “significant loss of potency”.
For `CCC(C)(C)C(=O)C(=O)N1CCCCC1C(=O)OC(CCc1ccc(OC)c(OC)c1)c1cccc(OCC(=O)NCCCOC(=O)NC(Cc2ccccc2)C(O)CN(CC(C)C)S(=O)(=O)c2ccc([N+](=O)[O-])cc2)c1` (stereo not drawn) [Compound A1], the IC50 at HIV-1 Protease (setting [1]) came to 24 nM.
As for `CCC(C)(C)C(=O)C(=O)N1CCCCC1C(=O)OC(CCc1ccc(OC)c(OC)c1)c1cccc(OCCNC(=O)COCC2OCCC2OC(=O)NC(Cc2ccccc2)C(O)CN(CC(C)C)S(=O)(=O)c2ccc(N)cc2)c1` (stereo not drawn) [Compound A13], on HIV-1 Protease (setting [1]), the IC50 is 51 nM.
As for `Cc1cccc(C)c1OCC(=O)N[C@@H](Cc1ccccc1)[C@@H](O)C[C@H](Cc1ccccc1)NC(=O)[C@H](C(C)C)N1CCCNC1=O` [Lopinavir, lopinavir, reference compound], the IC50 at HIV-1 Protease (Table 1 Activity data, read-out: HIV PI IC50 (nM) (Cell free assay)) was found to be 0.9 nM; in the assay on HIV-1LAI it was 18.9 nM. In the assay on HIV-1LAI, the “loss in potency between cell free assay experiments and cell infectivity assay experiments” value is on record as “significant loss of potency”.
For `CCC(C)(C)C(=O)C(=O)N1CCCCC1C(=O)OC(CCc1ccc(OC)c(OC)c1)c1cccc(OCC(=O)NC(CC(N)=O)C(=O)NC(Cc2ccccc2)C(O)CN(CC(C)C)S(=O)(=O)c2ccc(N)cc2)c1` (stereo not drawn) [Compound A14], at HIV-1 Protease (setting [1]), the IC50 came to 3.5 nM.
`CCC(C)(C)C(=O)C(=O)N1CCCCC1C(=O)OC(CCc1ccc(OC)c(OC)c1)c1cccc(OCCNC(=O)CCCOC(=O)NC(Cc2ccccc2)C(O)CN(CC(C)C)S(=O)(=O)c2ccc(N)cc2)c1` (stereo not drawn) [Compound A6]: at HIV-1 Protease (setting [1]), the IC50 stood at 5.6 nM.
For the molecule `CCC(C)(C)C(=O)C(=O)N1CCCCC1C(=O)OC(CCc1ccc(OC)c(OC)c1)c1cccc(OCCNC(=O)NC(CC(N)=O)C(=O)NC(Cc2ccccc2)C(CN(CC(C)C)S(=O)(=O)c2ccc(N)cc2)OC)c1` (stereo not drawn) [Compound A9], the IC50 on HIV-1 Protease amounted to 1.8 nM; in the assay with HIV-1LAI, 2.3 nM. In the assay on HIV-1LAI, the “loss in potency between cell free assay experiments and cell infectivity assay experiments” value is given as “little or no loss in potency”.
In the case of `CCC(C)(C)C(=O)C(=O)N1CCCCC1C(=O)OC(CCc1ccc(OC)c(OC)c1)c1cccc(OCC(=O)NCCCOC(=O)NC(Cc2ccccc2)C(O)CN(CC(C)C)S(=O)(=O)c2ccc(OC)cc2)c1` (stereo not drawn) [Compound A4], at HIV-1 Protease (setting [1]), the IC50 was 8.4 nM.
In the case of `CCC(C)(C)C(=O)C(=O)N1CCCCC1C(=O)OC(CCc1ccc(OC)c(OC)c1)c1cccc(OCC(=O)NC(C(=O)NC(Cc2ccccc2)C(O)CN(CC(C)C)S(=O)(=O)c2ccc(N)cc2)C(C)C)c1` (stereo not drawn) [Compound A5], the results for the IC50 on HIV-1 Protease and in the assay with HIV-1LAI were 7.9 nM and 3.3 nM, respectively. Further, in the assay on HIV-1LAI, the “loss in potency between cell free assay experiments and cell infectivity assay experiments” value is reported as “little or no loss in potency”.
On to `CCC(C)(C)C(=O)C(=O)N1CCCC[C@H]1C(=O)O[C@H](CCc1ccc(OC)c(OC)c1)c1cccc(NC(=O)CCC(=O)N[C@@H](Cc2ccccc2)[C@H](O)CC(CC(C)C)S(=O)(=O)c2ccc([N+](=O)[O-])cc2)c1` (stereo partly drawn) [Compound A8], for which, on HIV-1 Protease (assay not named, follows the cell free data of Table 2, read-out: IC50 value), the IC50 turned out to be 339 nM.
